The test system of data set [1] is HeLa cells (cervical cancer). Nature of the data set: MTT antiproliferative assay, HeLa. Type of data set: cell-based, human. Conditions: Homo sapiens, 72 h, read-out: Growth inhibition (%) ± SEM. On the procedure: (§1) The in vitro antiproliferative activities of the synthesized aminodiols 4–38 against a panel of different human cancer cell lines of gynecological origin, including cervical (SiHA and HeLa), breast (MCF7 and MDA-MB-231), and ovary (A2780) cancers were assayed by the MTT method. […] Cisplatin, a clinically applied anticancer agent, was used as a reference compound and the results are summarized in Figure 3 and Table S1 in Supporting Information. […] On the other hand, none of the prepared azole derivatives exerted relevant activity.
(§2) The growth-inhibitory effects of the gibberellic acid-based aminodiol derivatives were determined by a standard MTT (3-(4,5-dimethylthiazol-2-yl)-2,5-diphenyltetrazolium bromide) assay on a panel containing five cell lines, including Hela and Siha (cervical cancers); MDA-MB-231 and MCF-7 (breast cancers); and A2780 ovarian cancer cells. The most promising agents were additionally tested against NIH/3T3 mouse embryo fibroblast cells. All cell lines were purchased from the European Collection of Cell Cultures (Salisbury, UK) except SiHa, which was obtained from the American Tissue Culture Collection (Manassas, VA, USA). The cells were maintained in minimal essential medium supplemented with 10% fetal bovine serum, 1% non-essential amino acids, and 1% penicillin-streptomycin at 37 °C in a humidified atmosphere containing 5% CO2. All media and supplements were obtained from Lonza Group Ltd., (Basel, Switzerland). Cancer cells were seeded into 96-well plates (5000 cells/well), after an overnight incubation the test compound was added in 2 different concentrations (10 µM and 30 µM) and incubated for another 72 h under cell-culturing conditions. Then, 20 μL of 5 mg/mL MTT solution was added to each well and incubated for a further 4 h. The medium was removed, and the precipitated formazan crystals were dissolved in DMSO during 60 min of shaking at 37 °C. As the final step, the absorbance was measured at 545 nm by using a microplate reader (SPECTROStar Nano, BMG Labtech, Offenburg, Germany). Untreated cells were included as controls. […] These agents were additionally tested against NIH/3T3 fibroblasts to obtain results about their cancer selectivity. Two independent experiments were performed with five wells for each condition. Cisplatin (Ebewe GmbH, Unterach, Austria), a clinically used anticancer agent, was used as a positive control. Calculations were performed utilizing the GraphPad Prism 5.01 software (GraphPad Software Inc., San Diego, CA, USA).

The subject of data set [2] is SiHa cells (cervical cancer). Description: MTT antiproliferative assay, SiHa. In kind it is cell-based, human. Conditions: Homo sapiens, 72 h, read-out: Growth inhibition (%) ± SEM. On the procedure:
as §1, §2
Background: Tetrazolium dyes change colour on reduction, which living cells bring about.

Data set [3] has as its system MDA-MB-231 cells (breast cancer). Nature of the data set: MTT antiproliferative assay, MDA-MB-231. In kind it is cell-based, human. The note with it: Homo sapiens, 72 h, read-out: Growth inhibition (%) ± SEM; for inhibition at 10 µM: MDA-MB-231, 10 μM; for inhibition at 30 µM: MDA-MB-231, 30 μM. Here is the method:
as §1, §2

Data set [4] deals with A2780 ovarian cancer cells. Description: MTT antiproliferative assay, A2780. In kind it is cell-based, human. Conditions: Homo sapiens, 72 h, read-out: Growth inhibition (%) ± SEM; for inhibition at 10 µM: A2780, 10 μM; for inhibition at 30 µM: A2780, 30 μM. Here is the method:
as §1, §2

Drawing on publication PMC9499365, “Stereoselective Synthesis and Application of Gibberellic Acid-Derived Aminodiols” (International Journal of Molecular Sciences, 2022), this text covers inhibition and melting point for ten molecules.

Broadly, the inhibition is the percentage by which the read-out fell short of the control. The term melting point denotes the temperature of the solid-liquid transition. Molecule `CCOC(=O)[C@H]1c2c(C)cccc2[C@H]2CC[C@]3(O)C[C@@]21C[C@]3(O)CNCc1ccc(OC)cc1` [Compound 11, Ethyl (4bS,7S,8S,9aR,10R)-7,8-dihydroxy-8-(((4-methoxybenzyl)amino)methyl)-1-methyl-4b,6,7,8,9,10-hexahydro-5H-7,9a-methanobenzo[a]azulene-10-carboxylate] yielded a melting point of 224 to 225 °C. Also, in data set [1], the inhibition at 10 µM is below 20% and the inhibition at 30 µM turned out to be 60.8 ± 2.44%. Moreover, in data set [2], the inhibition at 10 µM came out at 30.7 ± 0.82% and the inhibition at 30 µM was 53.7 ± 0.76%. Moreover, in data set [3], the inhibition at 10 µM was below 20% and the inhibition at 30 µM was 78.7 ± 1.47%. In data set [4], the inhibition at 10 µM came to 31.7 ± 2.82% and the inhibition at 30 µM was 53.4 ± 1.68%.

Consider `CCOC(=O)[C@H]1c2c(C)cccc2[C@H]2CC[C@]3(O)C[C@@]21C[C@]3(O)CNCc1ccccc1` [Compound 4, Ethyl (4bS,7S,8S,9aR,10R)-8-((benzylamino)methyl)-7,8-dihydroxy-1-methyl-4b,6,7,8,9,10-hexahydro-5H-7,9a-methanobenzo[a]azulene-10-carboxylate], for which the melting point lay within 97 to 99 °C. In addition, in data set [1], the inhibition at 10 µM came out at 26.9 ± 1.55% and the inhibition at 30 µM was found to be 25.9 ± 3.2%. Moreover, in data set [2], the inhibition at 10 µM came to 23.3 ± 0.63% and the inhibition at 30 µM worked out at 57 ± 1.16%. In addition, in data set [3], the inhibition at 10 µM was below 20% and the inhibition at 30 µM was determined as 31.6 ± 1.49%. In addition, in data set [4], the inhibition at 10 µM is below 20% and the inhibition at 30 µM was 49.9 ± 1.76%.

As to `CCOC(=O)[C@H]1c2c(C)cccc2[C@H]2CC[C@]3(O)C[C@@]21C[C@]3(O)CN[C@@H](CC)c1ccccc1` [Compound 8, Ethyl (4bS,7S,8S,9aR,10R)-7,8-dihydroxy-1-methyl-8-((((S)-1-phenylpropyl)amino)methyl)-4b,6,7,8,9,10-hexahydro-5H-7,9a-methanobenzo[a]azulene-10-carboxylate], the melting point lay within 114 to 115 °C. Also, in data set [1], the inhibition at 10 µM turned out to be 27.5 ± 0.41% and the inhibition at 30 µM worked out at 98.05 ± 0.07%. In data set [2], the inhibition at 10 µM turned out to be 29.7 ± 1.54% and the inhibition at 30 µM stood at 98.38 ± 0.44%. In data set [3], the inhibition at 10 µM is below 20% and the inhibition at 30 µM turned out to be 97.52 ± 0.67%. In addition, in data set [4], the inhibition at 10 µM stood at 39.5 ± 1.27% and the inhibition at 30 µM came out at 96.38 ± 0.13%.

As to `CCOC(=O)[C@H]1c2c(C)cccc2[C@H]2CC[C@]3(O)C[C@@]21C[C@]3(O)CNCc1cccc2ccccc12` [Compound 15, Ethyl (4bS,7S,8S,9aR,10R)-7,8-dihydroxy-1-methyl-8-(((naphthalen-1-ylmethyl)amino)methyl)-4b,6,7,8,9,10-hexahydro-5H-7,9a-methanobenzo[a]azulene-10-carboxylate], the melting point lay in the range of 71 to 74 °C. In addition, in data set [1], the inhibition at 10 µM is 28.2 ± 0.88% and the inhibition at 30 µM was 96.7 ± 1.54%. In data set [2], the inhibition at 10 µM amounted to 28.61 ± 0.15% and the inhibition at 30 µM is 97.95 ± 0.63%. In data set [3], the inhibition at 10 µM is below 20% and the inhibition at 30 µM came to 95.96 ± 0.69%. Also, in data set [4], the inhibition at 10 µM turned out to be 21.9 ± 1.5% and the inhibition at 30 µM was determined as 95.48 ± 0.65%.

`CCOC(=O)[C@H]1c2c(C)cccc2[C@H]2CC[C@]3(O)C[C@@]21C[C@]3(O)CNCc1cn(Cc2ccccc2)nn1` [Compound 31, Ethyl (4bS,7S,8S,9aR,10R)-8-((((1-benzyl-1H-1,2,3-triazol-4-yl)methyl)amino)methyl)-7,8-dihydroxy-1-methyl-4b,6,7,8,9,10-hexahydro-5H-7,9a-methanobenzo[a]azulene-10-carboxylate]: the melting point was 122 to 123 °C. For the same molecule, in data set [1], the inhibition at 10 µM is below 20% and the inhibition at 30 µM is 40.2 ± 5.59%. In data set [2], the inhibition at 10 µM was below 20% and the inhibition at 30 µM came to 42.9 ± 0.84%. In data set [3], the inhibition at 10 µM is below 20% and the inhibition at 30 µM was determined as 50.8 ± 3.01%. Further, in data set [4], the inhibition at 10 µM was below 20% and the inhibition at 30 µM is 41.4 ± 1.13%.

Take `CCOC(=O)[C@H]1c2c(C)cccc2[C@H]2CC[C@]3(O)C[C@@]21CC31CN(Cc2ccccc2)CO1` (stereo partly drawn) [Compound 24, Ethyl (4b’S,7’S,9a’R,10’R)-3-benzyl-7’-hydroxy-1’-methyl-4b’,6’,7’,10’-tetrahydro-5’H,9’H-spiro[oxazolidine-5,8’-[7,9a]methanobenzo[a]azulene]-10’-carboxylate]: the melting point fell in the range of 125 to 126 °C. Also, in data set [1], the inhibition at 10 µM was below 20% and the inhibition at 30 µM stood at 53.9 ± 2.21%. Also, in data set [2], the inhibition at 10 µM is below 20% and the inhibition at 30 µM is 31.9 ± 1.28%. For the same molecule, in data set [3], the inhibition at 10 µM was below 20% and the inhibition at 30 µM is 42.4 ± 1.46%. In data set [4], the inhibition at 10 µM is below 20% and the inhibition at 30 µM came to 34.1 ± 1.77%.

In turn, `CCOC(=O)[C@H]1c2c(C)cccc2[C@H]2CC[C@]3(O)C[C@@]21C[C@]3(O)CN[C@@H](C)c1ccc(F)cc1` [Compound 10, Ethyl (4bS,7S,8S,9aR,10R)-8-((((S)-1-(4-fluorophenyl)ethyl)amino)methyl)-7,8-dihydroxy-1-methyl-4b,6,7,8,9,10-hexahydro-5H-7,9a-methanobenzo[a]azulene-10-carboxylate] gave a melting point of 84 to 86 °C. In data set [1], the inhibition at 10 µM came to 38.5 ± 2.02% and the inhibition at 30 µM amounted to 97.93 ± 0.11%. Also, in data set [2], the inhibition at 10 µM stood at 39.1 ± 1.82% and the inhibition at 30 µM was found to be 97.08 ± 0.08%. In data set [3], the inhibition at 10 µM was 31.2 ± 0.77% and the inhibition at 30 µM stood at 94.5 ± 1.05%. Also, in data set [4], the inhibition at 10 µM was 22.2 ± 1.93% and the inhibition at 30 µM was 96.46 ± 0.76%.

The molecule `CCOC(=O)[C@H]1c2c(C)cccc2[C@H]2CC[C@]3(O)C[C@@]21C[C@]3(O)CN[C@H](C)c1ccccc1` [Compound 6, Ethyl (4bS,7S,8S,9aR,10R)-7,8-dihydroxy-1-methyl-8-((((R)-1-phenylethyl)amino)methyl)-4b,6,7,8,9,10-hexahydro-5H-7,9a-methanobenzo[a]azulene-10-carboxylate] registered a melting point of 104 to 105 °C. Also, in data set [1], the inhibition at 10 µM was found to be 21.4 ± 1.7% and the inhibition at 30 µM was 63.1 ± 1.81%. In data set [2], the inhibition at 10 µM is below 20% and the inhibition at 30 µM amounted to 65.9 ± 2.48%. Besides, in data set [3], the inhibition at 10 µM is below 20% and the inhibition at 30 µM came to 85.1 ± 1.38%. Moreover, in data set [4], the inhibition at 10 µM came to 25.3 ± 0.27% and the inhibition at 30 µM amounted to 61.9 ± 1.25%.

As for `CCOC(=O)[C@H]1c2c(C)cccc2[C@H]2CC[C@]3(O)C[C@@]21C[C@]3(O)Cn1cnc2ccccc21` [Compound 27, Ethyl (4bS,7S,8S,9aR,10R)-8-((1H-benzo[d]imidazol-1-yl)methyl)-7,8-dihydroxy-1-methyl-4b,6,7,8,9,10-hexahydro-5H-7,9a-methanobenzo[a]azulene-10-carboxylate], the melting point was in the range of 221 to 222 °C. Also, in data set [1], the inhibition at 10 µM is below 20% and the inhibition at 30 µM is 45.5 ± 1.87%. For the same molecule, in data set [2], the inhibition at 10 µM turned out to be 26.2 ± 0.46% and the inhibition at 30 µM was 44.4 ± 1.84%. Moreover, in data set [3], the inhibition at 10 µM is below 20% and the inhibition at 30 µM was below 20%. Moreover, in data set [4], the inhibition at 10 µM was below 20% and the inhibition at 30 µM was determined as 28.9 ± 1.27%.

In turn, `CCOC(=O)[C@H]1c2c(C)cccc2[C@H]2CC[C@]3(O)C[C@@]21C[C@]3(O)CN[C@H](CC)c1ccccc1` [Compound 7, Ethyl (4bS,7S,8S,9aR,10R)-7,8-dihydroxy-1-methyl-8-((((R)-1-phenylpropyl)amino)methyl)-4b,6,7,8,9,10-hexahydro-5H-7,9a-methanobenzo[a]azulene-10-carboxylate] came in with a melting point of 55 to 57 °C. Further, in data set [1], the inhibition at 10 µM was below 20% and the inhibition at 30 µM is 45 ± 0.97%. In data set [2], the inhibition at 10 µM stood at 28.9 ± 1.16% and the inhibition at 30 µM is 94.3 ± 1.48%. For the same molecule, in data set [3], the inhibition at 10 µM was below 20% and the inhibition at 30 µM came out at 70.38 ± 0.07%. Also, in data set [4], the inhibition at 10 µM is below 20% and the inhibition at 30 µM worked out at 65 ± 2.44%.
